Data as given in ChEMBL document CHEMBL4265987, “Identification of inhibitors of the E. coli chaperone SurA using in silico and in vitro techniques” (Bioorg Med Chem Lett, 2018).
Each block holds one compound with its values, some of them ahead of it. Active and inactive are the calls of the source. The rule behind the calls is not given here. Peptide text beside a SMILES is read from it.

What was measured:
[1] = molecular target: T1, Chaperone SurA (Escherichia coli (strain K12)) (UniProt P0ABZ6); experiment: Inhibition of rhodamine-WEYIPNV binding to Escherichia coli SurA up to 2.5 uM by fluorescence anisotropy
T1 sequence (whole entry): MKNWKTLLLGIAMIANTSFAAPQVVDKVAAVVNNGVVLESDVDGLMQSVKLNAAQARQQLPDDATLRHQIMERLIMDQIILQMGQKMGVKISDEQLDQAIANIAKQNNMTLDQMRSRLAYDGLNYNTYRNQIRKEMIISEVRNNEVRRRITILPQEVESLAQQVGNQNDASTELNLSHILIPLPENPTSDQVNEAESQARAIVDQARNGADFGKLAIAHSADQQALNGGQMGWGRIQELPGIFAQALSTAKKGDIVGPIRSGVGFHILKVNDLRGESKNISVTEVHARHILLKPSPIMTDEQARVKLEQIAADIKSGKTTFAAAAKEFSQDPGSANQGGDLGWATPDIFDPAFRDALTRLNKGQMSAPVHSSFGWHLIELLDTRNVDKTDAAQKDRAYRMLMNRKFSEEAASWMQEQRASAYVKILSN

[2] = molecular target: T1, Chaperone SurA (Escherichia coli (strain K12)); details: up to 3 µM
Description: Inhibition of rhodamine-WEYIPNV binding to Escherichia coli SurA up to 3 uM by fluorescence anisotropy

[3] = molecular target: T1, Chaperone SurA (Escherichia coli (strain K12)); experiment: Inhibition of rhodamine-WEYIPNV binding to Escherichia coli SurA up to 2 uM by fluorescence anisotropy
Chaperone SurA [4] = molecular target: T2, Chaperone SurA (Escherichia coli (strain K12), UniProt P0ABZ6); experiment: Inhibition of rhodamine-WEYIPNV binding to Escherichia coli SurA by fluorescence anisotropy
T2 sequence (P0ABZ6 whole entry): T1 sequence (whole entry)

[5] = Binding affinity to Rhodamine-WEYIPNV up to 3 uM by fluorescence anisotropy
[6] = molecular target: T1, Chaperone SurA (Escherichia coli (strain K12)); experiment: Inhibition of rhodamine-WEYIPNV binding to Escherichia coli SurA up to 1.5 uM by fluorescence anisotropy
[7] = molecular target: T1, Chaperone SurA (Escherichia coli (strain K12)); experiment: Binding affinity to Escherichia coli SurA at 5 nM by fluorescence anisotropy
Chaperone SurA [8] = molecular target: T2, Chaperone SurA; experiment: Inhibition of rhodamine-WEYIPNV binding to Escherichia coli SurA in presence of 0.01% Triton-X-100 by fluorescence anisotropy

Compound: N[C@@H](Cc1cnc[nH]1)C(=O)NCC(=O)NCC(=O)O (H-His-Gly-Gly-OH)
inhibition [2]: inactive

Compound: O=C(O)CCNC(=O)OCC1c2ccccc2-c2ccccc21
inhibition [1]: inactive

Compound: O=C(OCC1c2ccccc2-c2ccccc21)N1CCC[C@H]1C(=O)n1nnc2ccccc21
inhibition [3]: inactive

Compound: O=C(N[C@@H](Cc1c[nH]c2ccccc12)C(=O)O)OCC1c2ccccc2-c2ccccc21
IC50 (Chaperone SurA [4]): 23.3 µM | Activity [5]: inactive

Compound: c1cc(C2=N[C@H]3c4ccccc4C[C@H]3O2)nc(C2=N[C@H]3c4ccccc4C[C@H]3O2)c1
inhibition [6]: inactive

Compound: O=C1OC2(c3ccc(O)cc3Oc3cc(O)ccc32)c2ccccc21
Activity [7]: Active

Compound: O=C(N[C@H](Cc1ccc2ccccc2n1)C(=O)O)OCC1c2ccccc2-c2ccccc21
IC50 (Chaperone SurA [4]): 57 µM | Activity [5]: inactive | IC50 (Chaperone SurA [8]): 37.4 µM

Compound: CC[C@H](C)[C@H](NC(=O)OCC1c2ccccc2-c2ccccc21)C(=O)O
inhibition [1]: inactive

Compound: CC[C@H](C)[C@H](NC(=O)[C@H](Cc1ccc(O)cc1)NC(=O)[C@H](CCC(=O)O)NC(=O)[C@@H](N)Cc1c[nH]c2ccccc12)C(=O)N1CCC[C@H]1C(=O)N[C@@H](CC(N)=O)C(=O)N[C@H](C(=O)O)C(C)C
IC50 (Chaperone SurA [4]): 2.66 µM

Compound: H-KQAGNV-OH
inhibition [2]: inactive

Now from value to compound:

inhibition [1]: inactive
Compound: O=C(N[C@@H](Cc1ccc(O)cc1)C(=O)O)OCC1c2ccccc2-c2ccccc21

inhibition [3]: inactive
Compound: CN1/C(=C\C=C2/CCC(/C=C/C3=[N+](C)c4ccccc4C3(C)C)=C2Cl)C(C)(C)c2ccccc21

IC50 (Chaperone SurA [4]): 152 µM | Activity [5]: inactive
Compound: O=C(N[C@@H](Cc1ccccc1)C(=O)O)OCC1c2ccccc2-c2ccccc21

inhibition [1]: inactive
Compound: O=C1OC2(c3ccc(O)cc3Oc3cc(O)ccc32)c2ccc(N3C(=O)C=CC3=O)cc21

inhibition [1]: inactive
Compound: C[C@H](NC(=O)OCC1c2ccccc2-c2ccccc21)C(=O)O
